The nature of one data set: CHI Log D procedure. As to conditions: for chromatographic logD: pH 7.4, CHI Log D; for CHI Log D: pH 7.4. The format is physicochemical.
Data set [1] has as its target T1, full-length B-Catenin (Uniprot ID P35222) (Homo sapiens, UniProt P35222).
T1 construct: 65 nM full-length B-Catenin (Uniprot ID P35222)
T1 sequence (P35222 1-781): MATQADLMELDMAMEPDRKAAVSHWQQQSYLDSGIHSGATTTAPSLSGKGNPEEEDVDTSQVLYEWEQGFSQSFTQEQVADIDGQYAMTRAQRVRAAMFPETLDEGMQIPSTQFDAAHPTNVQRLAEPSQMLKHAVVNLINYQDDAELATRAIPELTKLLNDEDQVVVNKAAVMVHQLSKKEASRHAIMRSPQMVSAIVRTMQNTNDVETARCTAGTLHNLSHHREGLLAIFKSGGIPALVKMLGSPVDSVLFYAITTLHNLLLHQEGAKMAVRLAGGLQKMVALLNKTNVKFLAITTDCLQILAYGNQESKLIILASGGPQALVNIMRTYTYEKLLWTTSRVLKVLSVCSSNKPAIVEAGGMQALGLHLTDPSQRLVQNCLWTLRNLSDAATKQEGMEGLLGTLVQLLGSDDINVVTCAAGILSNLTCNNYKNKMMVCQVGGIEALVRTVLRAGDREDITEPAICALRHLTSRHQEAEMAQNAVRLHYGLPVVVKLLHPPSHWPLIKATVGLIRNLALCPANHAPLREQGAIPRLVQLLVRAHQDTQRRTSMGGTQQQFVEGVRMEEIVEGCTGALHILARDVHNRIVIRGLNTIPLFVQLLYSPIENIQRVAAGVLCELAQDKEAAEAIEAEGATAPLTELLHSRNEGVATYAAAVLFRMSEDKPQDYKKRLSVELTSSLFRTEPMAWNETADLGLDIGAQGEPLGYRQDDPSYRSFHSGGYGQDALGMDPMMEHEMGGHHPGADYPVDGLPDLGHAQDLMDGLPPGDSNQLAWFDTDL
As to the kind of experiment: Alphascreen binding assay (beta-catenin / biotin-TCF4 10-53). In short, it runs like this: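 AlphaScreen (Ni-chelate beads) competition in 50 mM Tris pH 8.0, 250 mM NaCl with detergents and 0.1% BSA. Peptide titrated 10 uM–5 nM against 65 nM human β-catenin bound to 10 nM biotinylated TCF4 10-53, 15 min then 60 min with beads, both at 20 °C; 1:1 Hill-slope fit.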

pEC50: −log10 of the molar value.

From patent publication US20240116985A1, “STAPLED PEPTIDES AND METHODS THEREOF” (priority 2020, published 2024) come the findings set out here.

What is called chromatographic logD is lipophilicity estimated from chromatographic retention. In general, pEC50 refers to the EC50 on a negative log10 scale, so that one unit is a factor of ten. Read a high pEC50 as a low EC50. With `CC(=O)N1CCC[C@]12CC=CCCCC1(CCCC=CCCCCCC[C@@](C)(C(=O)N[C@@H](Cc3ccccc3)C(=O)N[C@@H](Cc3c[nH]c4ccc(F)cc34)C(=O)N[C@@H](CCC(N)=O)C(N)=O)NC(=O)[C@H](C(C)C)NC(=O)[C@H](Cc3ccccc3)NC(=O)[C@H](C)NC(=O)[C@H](C)NC(=O)[C@H](CCC(=O)O)NC(=O)[C@H](CC(=O)O)NC1=O)NC(=O)[C@H](C)NC(=O)[C@H](CC(=O)O)NC2=O` (stereo partly drawn) [I-146, Ac-PL3-Asp-Ala-B5-Asp-Glu-Ala-Ala-Phe-Val-S8-Phe-5FW-Gln-NH2], the chromatographic logD in the data set “CHI Log D procedure” turned out to be 2. In data set [1], this molecule showed a pEC50 of 5.91.

For the molecule `CC[C@H](C)[C@H](NC(=O)[C@H](CC(=O)O)NC(C)=O)C(=O)N[C@]1(C)CCN(C)C(=O)OCC=CCCCCC[C@@](C)(C(=O)N[C@@H](Cc2ccccc2)C(=O)N[C@@H](Cc2c[nH]c3ccccc23)C(=O)N[C@@H](Cc2c[nH]cn2)C(N)=O)NC(=O)[C@H](CCC(N)=O)NC(=O)[C@H](Cc2ccccc2)NC(=O)[C@H](C)NC(=O)[C@H](C)NC(=O)[C@H](CC(=O)O)NC(=O)[C@H](CC(=O)O)NC1=O` [I-150, Ac-Asp-Ile-RdN-Asp-Asp-Ala-Ala-Phe-Gln-S7-Phe-Trp-His-NH2], the “CHI Log D” value in the data set “CHI Log D procedure” stood at 1.297. Moreover, the negative-log EC50 (pEC50) in data set [1] was 5.71.

`CC[C@H](C)[C@H](NC(=O)[C@H](CC(=O)O)NC(C)=O)C(=O)N[C@]1(C)CCN(C)C(=O)OCC=CCCCCC[C@@](C)(C(=O)N[C@@H](Cc2ccccc2)C(=O)N[C@@H](Cc2c[nH]c3ccccc23)C(N)=O)NC(=O)[C@H](CCC(N)=O)NC(=O)[C@H](Cc2ccccc2)NC(=O)[C@H](C)NC(=O)[C@H](C)NC(=O)[C@H](CC(=O)O)NC(=O)[C@H](CC(=O)O)NC1=O` [I-151, Ac-Asp-Ile-RdN-Asp-Asp-Ala-Ala-Phe-Gln-S7-Phe-Trp-NH2] showed a chromatographic logD in the data set “CHI Log D procedure” of 1.35. The molecule also showed a pEC50 in data set [1] of 5.26.

Regarding `CC[C@H](C)[C@H](NC(=O)[C@H](CC(=O)O)NC(=O)[C@H](C)NC(C)=O)C(=O)N[C@]1(C)CCN(C)C(=O)OCC=CCCCCC[C@@](C)(C(=O)N[C@@H](Cc2ccccc2)C(=O)N[C@@H](Cc2c[nH]c3ccccc23)C(=O)N[C@@H](C)C(N)=O)NC(=O)[C@H](C)NC(=O)[C@H](Cc2ccccc2)NC(=O)[C@H](C)NC(=O)[C@H](C)NC(=O)[C@H](CCC(=O)O)NC(=O)[C@H](CC(=O)O)NC1=O` [I-155, Ac-Ala-Asp-Ile-RdN-Asp-Glu-Ala-Ala-Phe-Ala-S7-Phe-Trp-Ala-NH2], the “CHI Log D” value in “CHI Log D procedure” came out at 1.415. In data set [1], the negative logarithm of the EC50 (pEC50) was 6.13.

In the data set “CHI Log D procedure”, `CC(=O)N[C@@H](C)C(=O)N[C@@H](CC(=O)O)C(=O)N[C@@H](C)C(=O)N[C@]1(C)CCN(C)C(=O)OCC=CCCCCC[C@@](C)(C(=O)N[C@@H](Cc2ccccc2)C(=O)N[C@@H](Cc2c[nH]c3ccccc23)C(=O)N[C@@H](Cc2c[nH]cn2)C(N)=O)NC(=O)[C@H](CCC(N)=O)NC(=O)[C@H](Cc2ccccc2)NC(=O)[C@H](C)NC(=O)[C@H](C)NC(=O)[C@H](CCC(=O)O)NC(=O)[C@H](CC(=O)O)NC1=O` [I-156, Ac-Ala-Asp-Ala-RdN-Asp-Glu-Ala-Ala-Phe-Gln-S7-Phe-Trp-His-NH2] registered a chromatographic logD of 1.07. In data set [1], this molecule gave a pEC50 of 5.38.

Regarding `CC(=O)NC(C)(C)C(=O)N[C@@H](CC(=O)O)C(=O)N[C@@H](C)C(=O)N[C@]1(C)CCCCCCC=CCOC(=O)N2CC[C@@](C(=O)N[C@@H](Cc3ccccc3)C(=O)N[C@@H](Cc3c[nH]c4ccccc34)C(=O)N[C@@H](CCC(N)=O)C(N)=O)(C2)NC(=O)[C@H](C(C)C)NC(=O)[C@H](Cc2ccccc2)NC(=O)[C@H](C)NC(=O)[C@H](C)NC(=O)[C@H](CCC(=O)O)NC(=O)[C@H](CC(=O)O)NC1=O` [I-158, Ac-Aib-Asp-Ala-R8-Asp-Glu-Ala-Ala-Phe-Val-PyrS-Phe-Trp-Gln-NH2], in “CHI Log D procedure”, the “CHI Log D” value came to 1.23. Besides, the pEC50 in data set [1] was 5.66.

For the molecule `CC(=O)NC(C)(C)C(=O)N[C@@H](CC(=O)O)C(=O)N[C@@H](C)C(=O)N[C@]1(C)CCCCCCC=CCOC(=O)N2CC[C@@](C(=O)N[C@@H](Cc3ccccc3)C(=O)N[C@@H](Cc3c[nH]c4ccccc34)C(=O)NC(C)(C)C(N)=O)(C2)NC(=O)[C@H](C(C)C)NC(=O)[C@H](Cc2ccccc2)NC(=O)[C@H](C)NC(=O)[C@H](C)NC(=O)[C@H](CCC(=O)O)NC(=O)[C@H](CC(=O)O)NC1=O` [I-160, Ac-Aib-Asp-Ala-R8-Asp-Glu-Ala-Ala-Phe-Val-PyrS-Phe-Trp-Aib-NH2], the “CHI Log D” value in the data set “CHI Log D procedure” worked out at 1.49. In data set [1], this molecule gave a negative logarithm of the EC50 (pEC50) of 5.49.

`COc1ccc2[nH]cc(C[C@H](NC(=O)[C@H](Cc3ccccc3)NC(=O)[C@]3(C)CCCCCCC=CCCCC4(CCCC=CC[C@]5(CCCN5C(C)=O)C(=O)N[C@@H](CC(=O)O)C(=O)N[C@@H](C)C(=O)N4)C(=O)N[C@@H](CC(=O)O)C(=O)N[C@@H](CCC(=O)O)C(=O)N[C@@H](C)C(=O)N[C@@H](C)C(=O)N[C@@H](Cc4ccccc4)C(=O)N[C@@H](C(C)C)C(=O)N3)C(=O)N[C@@H](CCC(N)=O)C(N)=O)c2c1` (stereo partly drawn) [I-165, Ac-PL3-Asp-Ala-B5-Asp-Glu-Ala-Ala-Phe-Val-S8-Phe-5MeOW-Gln-NH2] displayed a chromatographic logD in “CHI Log D procedure” of 2. The molecule also gave a negative-log EC50 (pEC50) in data set [1] of 5.91.

As for `CC(=O)N1CCC[C@]12CC=CCCCC1(CCCC=CCCCCCC[C@@](C)(C(=O)N[C@@H](Cc3ccccc3)C(=O)N[C@@H](CC3CNc4ccccc43)C(=O)N[C@@H](CCC(N)=O)C(N)=O)NC(=O)[C@H](C(C)C)NC(=O)[C@H](Cc3ccccc3)NC(=O)[C@H](C)NC(=O)[C@H](C)NC(=O)[C@H](CCC(=O)O)NC(=O)[C@H](CC(=O)O)NC1=O)NC(=O)[C@H](C)NC(=O)[C@H](CC(=O)O)NC2=O` (stereo partly drawn) [I-167, Ac-PL3-Asp-Ala-B5-Asp-Glu-Ala-Ala-Phe-Val-S8-Phe-H2Trp-Gln-NH2], in “CHI Log D procedure”, the “CHI Log D” value is on record as 1.927. Besides, the pEC50 in data set [1] is 5.21.

For `CC(=O)N1CCC[C@]12CC=CCCCC1(CCCC=CCCCCCC[C@@](C)(C(=O)N[C@@H](Cc3ccccc3)C(=O)N[C@@H](CC3CNc4ccccc43)C(=O)N[C@@H](CCC(N)=O)C(N)=O)NC(=O)[C@H](C(C)C)NC(=O)[C@H](Cc3ccccc3)NC(=O)[C@H](C)NC(=O)[C@H](C)NC(=O)[C@H](CCC(=O)O)NC(=O)[C@H](CC(=O)O)NC1=O)NC(=O)[C@H](C)NC(=O)[C@H](CC(=O)O)NC2=O` (stereo partly drawn) [I-168, Ac-PL3-Asp-Ala-B5-Asp-Glu-Ala-Ala-Phe-Val-S8-Phe-H2Trp-Gln-NH2], in the data set “CHI Log D procedure”, the “CHI Log D” value is 1.942. The negative-log EC50 (pEC50) in data set [1] is 5.25.

In the case of `CC(=O)N1CCC[C@]12CC=CCCCC1(CCCC=CCCCCCC[C@@](C)(C(=O)N[C@@H](Cc3ccccc3)C(=O)N[C@@H](Cc3c[nH]c4ccc(C(F)(F)F)cc34)C(=O)N[C@@H](CCC(N)=O)C(N)=O)NC(=O)[C@H](C(C)C)NC(=O)[C@H](Cc3ccccc3)NC(=O)[C@H](C)NC(=O)[C@H](C)NC(=O)[C@H](CCC(=O)O)NC(=O)[C@H](CC(=O)O)NC1=O)NC(=O)[C@H](C)NC(=O)[C@H](CC(=O)O)NC2=O` (stereo partly drawn) [I-169, Ac-PL3-Asp-Ala-B5-Asp-Glu-Ala-Ala-Phe-Val-S8-Phe-5CF3W-Gln-NH2], in the data set “CHI Log D procedure”, the chromatographic logD was 2.18. Besides, in data set [1], the negative logarithm of the EC50 (pEC50) was 5.04.

In the case of `CC(=O)N1CCC[C@]12CC=CCCCC1(CCCC=CCCCCCC[C@@](C)(C(=O)N[C@@H](Cc3ccccc3)C(=O)N[C@@H](Cc3c[nH]c4ccc(C5CC5)cc34)C(=O)N[C@@H](CCC(N)=O)C(N)=O)NC(=O)[C@H](C(C)C)NC(=O)[C@H](Cc3ccccc3)NC(=O)[C@H](C)NC(=O)[C@H](C)NC(=O)[C@H](CCC(=O)O)NC(=O)[C@H](CC(=O)O)NC1=O)NC(=O)[C@H](C)NC(=O)[C@H](CC(=O)O)NC2=O` (stereo partly drawn) [I-171, Ac-PL3-Asp-Ala-B5-Asp-Glu-Ala-Ala-Phe-Val-S8-Phe-5CpW-Gln-NH2], the “CHI Log D” value in “CHI Log D procedure” was found to be 2.204. Further, the pEC50 in data set [1] is 5.68.

Molecule `CC(=O)N1CCC[C@]12CC=CCCCC1(CCCC=CCCCCCC[C@@](C)(C(=O)N[C@@H](Cc3ccccc3)C(=O)N[C@@H](Cc3ccc4ccccc4c3)C(=O)N[C@@H](C)C(N)=O)NC(=O)[C@H](C)NC(=O)[C@H](Cc3ccc(F)c(F)c3)NC(=O)[C@H](C)NC(=O)[C@H](C)NC(=O)[C@H](CCC(=O)O)NC(=O)[C@H](CC(=O)O)NC1=O)NC(=O)[C@H](C)NC(=O)[C@H](CC(=O)O)NC2=O` (stereo partly drawn) [I-185, Ac-PL3-Asp-Ala-B5-Asp-Glu-Ala-Ala-34FF-Ala-S8-Phe-2NapA-Ala-NH2] came in with a chromatographic logD in the data set “CHI Log D procedure” of 2.3. This molecule had a pEC50 in data set [1] of 5.57.

In the case of `CC(=O)N1CCC[C@]12CC=CCCCC1(CCCC=CCCCCCC[C@@](C)(C(=O)N[C@@H](Cc3ccccc3)C(=O)N[C@@H](Cc3c[nH]c4ccccc34)C(=O)N[C@@H](C)C(N)=O)NC(=O)[C@H](C)NC(=O)[C@H](Cc3ccccc3)NC(=O)[C@H](C)NC(=O)[C@H](C)NC(=O)[C@H](CCC(=O)O)NC(=O)[C@H](CC(=O)O)NC1=O)NC(=O)[C@H](C)NC(=O)[C@H](CC(=O)O)NC2=O` (stereo partly drawn) [I-186, Ac-PL3-Asp-Ala-B5-Asp-Glu-Ala-Ala-Phe-Ala-S8-Phe-Trp-Ala-NH2], the “CHI Log D” value in “CHI Log D procedure” is listed as 2.041. This molecule also showed a negative logarithm of the EC50 (pEC50) in data set [1] of 6.29.
